Test results from PubChem BioAssay AID624365 (Broad Institute, 2012).
Values joined by “and” are separate entries in the source; they are usually repeats but may differ in a detail not shown here. Equal values may be shown once. Results filed as inconclusive are left out. Active and inactive are the calls of the source.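 Rule for the calls: active = fitted curve drops past -35% activity change at a concentration up to twice the top valid dose tested; inconclusive = no clear call, values can overlap the other calls; inactive = activity opposite to the expected decrease, or the rest.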

Legend:
[1] = cytotoxicity in HepG2 hepatoma cells – cell-based, CellTiter-Glo luminescence, dry powder, cytotoxicity control for LMP1 inhibitor project, dose response (AID 624365); settings: HepG2 viability, CellTiter-Glo luminescence, 48 h
[2] = tested on: HepG2 viability, CellTiter-Glo luminescence, 48 h; assay: as above

| SMILES | activity change, negative = cytotoxicity ([1]; at 19.5 µM (top of the series)) | AC35 [2] | further results |
| --- | --- | --- | --- |
| C[C@@H]1CN([C@@H](C)CO)C(=O)c2cc(NC(=O)Nc3ccc(C(F)(F)F)cc3)ccc2O[C@@H](C)CCCCO[C@H]1CN(C)Cc1ccc(C(F)(F)F)cc1 | -1.82% (inactive) | – | – |
| Fc1ccc2c(c1)c1nnc(SCCN3CCOCC3)nc1n2Cc1ccccc1 | – | 33.7 µM | – |
| C/C(=N\NC(=S)Nc1ccccc1)c1ccccn1 | – | – | activity change, negative = cytotoxicity ([1]; at 10 µM (top of the series)): -2.52% (inactive) |
| CCn1c2ccccc2c2cc(/C=N/n3cnnc3)ccc21 | – | 22.1 µM | – |
| CCc1ccc(/C=C/C(=O)C2C(=O)c3ccccc3C2=O)cc1 | -7.16% (inactive) | – | – |
| COc1ccc(C(=O)Nc2ccc3[nH]ccc3c2)cc1 | 1.7% (inactive) | – | – |
| Oc1cccc(C(Nc2nccs2)c2ccc3cccnc3c2O)c1 (centres undefined) | 3.87% (inactive) | – | – |
| C/C=C/C/C=C/CCC(=O)[C@H]1O[C@H]1C(N)=O | – | 14 µM and 60.1 µM | – |
| Nc1ccn([C@@H]2O[C@H](CO)[C@@H](O)C2O)c(=O)n1 (some centres undefined) | – | 7.36 µM | – |
| C=C1C[C@]23C[C@@]1(O)CC[C@@H]2c1cccc(C)c1[C@@H]3C(=O)O | -23.5% (inactive) | – | – |
| CC(C)=CCN(C(=O)C#Cc1ccccc1)[C@H](CO)c1ccccc1 | – | 20.3 µM | – |
| CNC[C@@H]1Oc2ccc(NS(=O)(=O)c3cn(C)cn3)cc2CC(=O)N([C@H](C)CO)C[C@@H]1C | – | – | activity change, negative = cytotoxicity ([1]; at 21 µM (top of the series)): -1.51% (inactive) |
| C[C@H](CO)N1C[C@H](C)[C@@H](CN(C)Cc2ccc(-c3ccccc3)cc2)Oc2ccc(NC(=O)Nc3cccc4ccccc34)cc2CC1=O | – | 37 µM | – |
| C[C@@H]1CCCCO[C@H](CN(C)CC2CCCCC2)[C@H](C)CN([C@@H](C)CO)C(=O)c2cc(NC(=O)NC3CCCCC3)ccc2O1 | -0.214% (inactive) | – | – |
| COCCCNC(=O)C(C)Sc1nnc2c3cc(C)ccc3n(Cc3ccccc3F)c2n1 (centres undefined) | -14.5% (inactive) | – | – |
| c1ccc(-c2cn3c4c(sc3n2)CCCC4)cc1 | -13.4% (inactive) | – | – |
| COc1ccc(-c2cc3nc4n(c(=O)c3s2)CCC4)cc1 | -14.3% (inactive) | – | – |
| O=C(CSc1nnc2c3ccccc3n(Cc3ccccc3)c2n1)NCc1ccco1 | – | 19.5 µM | – |
| C/C(=N\NC(=S)N1CC2CCC(CC2)C1)c1cccc(C)n1 | -9.43% (inactive) | – | – |
| CCCSc1nnc2c3ccccc3n(Cc3ccccc3)c2n1 | -1.67% (inactive) | – | – |
| Cc1ccc(S(=O)(=O)NC(CC(C)C)C(=O)NCC(c2ccco2)N2CCCCC2)cc1 (centres undefined) | 14.4% (inactive) | – | – |
| C/C(=N\NC(=S)N1CCCCC1)c1cccc(C)n1 | – | 2.55 µM | – |

| SMILES | activity change, negative = cytotoxicity ([1]; at 19.5 µM (top of the series)) | AC35 [2] | further results |
| --- | --- | --- | --- |
| COc1cccc(/C=N/Nc2ncnc3c2ncn3Cc2ccccc2)c1O | – | 26.4 µM | – |
| C[C@H](CO)N1C[C@H](C)[C@@H](CN(C)CC2CCCCC2)OCCCC[C@H](C)Oc2ccc(NC(=O)Nc3cccc4ccccc34)cc2C1=O | -6.9% (inactive) | – | – |
| O=C(CCc1ccccc1)NC(c1cccs1)c1cc(Cl)c2cccnc2c1O (centres undefined) | 1.94% (inactive) | – | – |
| O=C1/C(=C/c2ccncc2)SC(=S)N1Cc1ccccc1 | -5.23% (inactive) | – | – |
| Cc1ccc(NC(=O)C2CCN(S(=O)(=O)c3ccc4c(c3)NC(=O)C(C)S4)CC2)cc1Cl (centres undefined) | -15.1% (inactive) | – | – |
| CC12CCC3C(CC=C4CC(O)CCC43CO)C1CCC2OC(=O)c1ccccc1 (centres undefined) | 0.538% (inactive) | – | – |
| O=c1[nH]c(Nc2nc3ccccc3o2)nc2c1CCCC2 | -6.44% (inactive) | – | – |
| C=C1C[C@]23C[C@@]1(O)CC[C@H]2[C@@]12C=C[C@H](O)[C@@](C)(C(=O)O1)[C@H]2[C@@H]3C(=O)O | – | – | activity change, negative = cytotoxicity ([1]; at 12 µM (top of the series)): 9.94% (inactive) |
| Cc1ccnc(NC(=O)c2ccc(C(=O)c3ccccc3)cc2)c1 | -6.85% (inactive) | – | – |
| O=C(Nc1cc(C(F)(F)F)cc(C(F)(F)F)c1)Nc1cnn(-c2ccc([N+](=O)[O-])cc2)c1C(F)(F)F | 11.8% (inactive) | – | – |
| C/C(=N\NC(=S)Nc1cccc(Cl)c1)c1ccccn1 | – | 13.2 µM | – |
| Cc1ccc(S(=O)(=O)Nc2ccc3c(c2)C(=O)N([C@@H](C)CO)C[C@H](C)[C@@H](CN(C)C(=O)CCC(F)(F)F)OCCCC[C@H](C)O3)cc1 | 1.23% (inactive) | – | – |
| C[C@@H]1CCCCO[C@H](CN(C)C(=O)NC2CCCCC2)[C@H](C)CN([C@@H](C)CO)C(=O)c2cc(NC(=O)C3CCCCC3)ccc2O1 | 11% (inactive) | – | – |
| Cc1cc(NC(=O)c2ccc3c(c2)OCCO3)no1 | 14.9% (inactive) | – | – |
| CCN1CCN(C(c2cccnc2)c2cc(Cl)c3cccnc3c2O)CC1 (centres undefined) | -19.9% (inactive) | – | – |
| COc1ccc2[nH]c(C(=O)N/N=C/c3ccc(O)cc3O)cc2c1 | – | 46.4 µM | – |
| O=c1[nH]c(=O)n([C@H]2C[C@H](O)[C@@H](CO)O2)cc1C(F)(F)F | – | 14.3 µM | – |
| C[C@@H]1CN([C@@H](C)CO)C(=O)c2cccc(NC(=O)Nc3cccc4ccccc34)c2O[C@H]1CN(C)C(=O)Nc1ccc(C(F)(F)F)cc1 | -1.58% (inactive) | – | – |
| Cc1c(NC(=O)c2cccc(NC(=O)COc3ccccc3C#N)c2)c(=O)n(-c2ccccc2)n1C | 0.795% (inactive) | – | – |
| CC1CN(C(=O)CSc2nnc3c4ccccc4n(Cc4cccc(Cl)c4)c3n2)CCN1C(=O)c1ccccc1F (centres undefined) | -2.74% (inactive) | – | – |
| COc1ccc2nc(Nc3nc(C)c(CCC(C)C)c(=O)[nH]3)nc(C)c2c1 | – | 3.44 µM | – |
| CSC(=S)N/N=C(\C)c1cccc(C)n1 | 1.36% (inactive) | – | – |

| SMILES | activity change, negative = cytotoxicity ([1]; at 19.5 µM (top of the series)) | AC35 [2] | further results |
| --- | --- | --- | --- |
| CC1=C(C(=O)OCc2ccc3c(c2)OCO3)C(c2ccc(F)cc2)NC(=O)N1 (centres undefined) | 2.83% (inactive) | – | – |
| C/C(=N\NC(=S)N1CCN(c2ccccn2)CC1)c1ccccn1 | – | – | activity change, negative = cytotoxicity ([1]; at 10 µM (top of the series)): -18.8% (inactive) |
| C[C@H](CO)N1C[C@H](C)[C@@H](CN(C)CC2CC2)OCCCC[C@H](C)Oc2ccc(NC(=O)Nc3cccc4ccccc34)cc2C1=O | – | 79.9 µM | – |
| CC(=O)Nc1nc(C)c(-c2csc(Nc3ccc(O)cc3)n2)s1 | – | 19.6 µM | – |
| CCc1ccc(/C=C2\SC(=S)N(CCCC(=O)Nc3ccccn3)C2=O)cc1 | -1.2% (inactive) | – | – |
| COc1ccc(-c2csc3ncnc(NCCN4CCOCC4)c23)cc1 | -1.72% (inactive) | – | – |
| CCc1sc(C(=O)Nc2ncccc2O)cc1C | -0.832% (inactive) | – | – |
| C/C(=N\NC(=S)Nc1ccc(C)cc1)c1ccccn1 | – | 11.9 µM | – |
| C[C@@H]1CN([C@@H](C)CO)C(=O)c2cc(NC(=O)Nc3ccc4c(c3)OCO4)ccc2O[C@H]1CN(C)CC1CCCCC1 | – | 28.9 µM | – |
| C[C@@H]1CCCCO[C@H](CN(C)S(=O)(=O)c2ccccc2)[C@@H](C)CN([C@@H](C)CO)C(=O)c2cc(N(C)C)ccc2O1 | -0.756% (inactive) | – | – |
| C[C@H]1CCCCO[C@@H](CN(C)CC2CCCCC2)[C@@H](C)CN([C@@H](C)CO)C(=O)c2cc(NC(=O)C3CCCCC3)ccc2O1 | – | 21.4 µM | – |
| C[C@@H]1CCCCO[C@H](CN(C)C(=O)c2ccccc2)[C@H](C)CN([C@@H](C)CO)C(=O)c2cc(NC(=O)Nc3ccc(F)cc3)ccc2O1 | -6.27% (inactive) | – | – |
| C[C@H](CO)N1C[C@H](C)[C@H](CN(C)C(=O)Nc2ccc(C(F)(F)F)cc2)OCCCC[C@H](C)Oc2ccc(NC(=O)Nc3ccc(F)cc3)cc2C1=O | – | 55.6 µM | – |
| C[C@@H]1CCCCO[C@@H](CN(C)Cc2ccccc2)[C@H](C)CN([C@H](C)CO)C(=O)c2cc(NC(=O)Nc3ccc4c(c3)OCO4)ccc2O1 | -6.99% (inactive) | – | – |
| C/C(=N\NC(=S)Nc1ccccc1Cl)c1ccccn1 | – | 9.26 µM | – |
| C=CCN1Cc2ccccc2[C@@H]2OC(c3ccc(OCCCO)cc3)=N[C@]2(CCC(=O)OC(C)(C)C)C1=O | 4.76% (inactive) | – | – |
| CSc1nc(-c2ccc(C)cc2)nc(C(Cl)Cl)n1 | – | 36 µM | – |
| C[C@@H]1CCCCO[C@H](CN(C)C(=O)CCC(F)(F)F)[C@H](C)CN([C@@H](C)CO)C(=O)c2cc(NC(=O)CCC(F)(F)F)ccc2O1 | 6.76% (inactive) | – | – |
| COc1ccc(NC(=O)c2ccc(OC(C)C(=O)O)cc2)cc1Cl (centres undefined) | – | – | activity change, negative = cytotoxicity ([1]; at 21 µM (top of the series)): -17.9% (inactive) |
| C[C@@H]1CN([C@@H](C)CO)C(=O)c2cc(NC(=O)Nc3ccc(C(F)(F)F)cc3)ccc2O[C@@H](C)CCCCO[C@@H]1CN(C)CC1CCCCC1 | – | 40.7 µM | – |
